Assay results from US20230031406A1, “COMPOUNDS AND COMPOSITIONS FOR TREATING CONDITIONS ASSOCIATED WITH NLRP ACTIVITY” (Novartis AG, priority 2018, published 2023).

test system: PMA-differentiated THP-1 cells; assay: IL-1β production in PMA-differentiated THP-1 cells stimulated with gramicidin (hTHP-1 assay containing 2% fetal bovine serum; Procedures 1 and 2); format: cell-based, human; settings: Homo sapiens, THP-1, Table B3; hTHP-1 assay, 2% fetal bovine serum; class symbols; read-out: IC50
In short: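 Human monocytic THP-1 cells, matured overnight with PMA at 20 ng/ml, are seeded in low-serum (2% FBS) RPMI. Test compounds, at final concentrations from 100 down to 0.0017 μM, precede gramicidin (5 μM, 2 h) by one hour. Released IL-1β is then determined by HTRF.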

IC50, 1000 to 5000 nM:
Cc1c(C2(F)CC2)nc2c(c1NC(=O)N=S(N)(=O)c1cc(C(C)(C)O)cs1)CCC2 (single isomer, unassigned) [Example 683, (R) or (S)-N′-((2-(1-fluorocyclopropyl)-3-methyl-6,7-dihydro-5H-cyclopenta[b]pyridin-4-yl)carbamoyl)-4-(2-hydroxypropan-2-yl)thiophene-2-sulfonimidamide]
CC(C)(O)c1cc(F)c(S(N)(=O)=NC(=O)Nc2cc(CC(F)(F)F)nc3c2CCC3)s1 (single isomer, unassigned) [Example 689, (R) or (S)-3-Fluoro-5-(2-hydroxypropan-2-yl)-N′-((2-(2,2,2-trifluoroethyl)-6,7-dihydro-5H-cyclopenta[b]pyridin-4-yl)carbamoyl)thiophene-2-sulfonimidamide]
Cc1c(C(F)(F)F)nc2c(c1NC(=O)N=S(N)(=O)c1ccn(C)n1)CCC2 (single isomer, unassigned) [Example 693, (R) or (S)-1-Methyl-N′-((3-methyl-2-(trifluoromethyl)-6,7-dihydro-5H-cyclopenta[b]pyridin-4-yl)carbamoyl)-1H-pyrazole-3-sulfonimidamide]

IC50, 200 to 1000 nM:
Cc1c(C2(F)CC2)nc2c(c1NC(=O)N=S(N)(=O)c1sc(C(C)(C)O)cc1F)CCC2 (single isomer, unassigned) [Example 685, (R) or (S)-3-fluoro-N′-((2-(1-fluorocyclopropyl)-3-methyl-6,7-dihydro-5H-cyclopenta [b]pyridin-4-yl)carbamoyl)-5-(2-hydroxypropan-2-yl) thiophene-2-sulfonimidamide]

same assay, conditions: Homo sapiens, THP-1, Table B3; hTHP-1 assay, 2% fetal bovine serum; numeric values; read-out: IC50

IC50, > 30000 nM:
Cc1c(C2(F)CC2)nc2c(c1NC(=O)N=S(N)(=O)c1cc(C(C)(C)O)cs1)CCC2 (single isomer, unassigned) [Example 684, (S) or (R)-N′-((2-(1-fluorocyclopropyl)-3-methyl-6,7-dihydro-5H-cyclopenta[b]pyridin-4-yl)carbamoyl)-4-(2-hydroxypropan-2-yl)thiophene-2-sulfonimidamide]
Cc1c(C2(F)CC2)nc2c(c1NC(=O)N=S(N)(=O)c1sc(C(C)(C)O)cc1F)CCC2 (single isomer, unassigned) [Example 686, (S) or (R)-3-fluoro-N′-((2-(1-fluorocyclopropyl)-3-methyl-6,7-dihydro-5H-cyclopenta[b]pyridin-4-yl)carbamoyl)-5-(2-hydroxypropan-2-yl) thiophene-2-sulfonimidamide]
CC(C)(O)c1cc(F)c(S(N)(=O)=NC(=O)Nc2cc(CC(F)(F)F)nc3c2CCC3)s1 (single isomer, unassigned) [Example 690, (S) or (R)-3-Fluoro-5-(2-hydroxypropan-2-yl)-N′-((2-(2,2,2-trifluoroethyl)-6,7-dihydro-5H-cyclopenta[b]pyridin-4-yl)carbamoyl)thiophene-2-sulfonimidamide]
Cc1c(C(F)(F)F)nc2c(c1NC(=O)N=S(N)(=O)c1ccn(C)n1)CCC2 (single isomer, unassigned) [Example 694, (S) or (R)-1-Methyl-N′-((3-methyl-2-(trifluoromethyl)-6,7-dihydro-5H-cyclopenta[b]pyridin-4-yl)carbamoyl)-1H-pyrazole-3-sulfonimidamide]

same assay, conditions: Table B3; hTHP-1 assay, 2% fetal bovine serum; class symbols; read-out: IC50

IC50, 1000 to 5000 nM:
CCn1cc(F)c(S(N)(=O)=NC(=O)Nc2c3c(nc4c2CCC42CC2)CCC3)n1 (single isomer, unassigned) [Example 672, (S) or (R)-1-ethyl-4-fluoro-N′-((1′,5′,6′,7′-tetrahydro-2′H-spiro[cyclopropane-1,3'-dicyclopenta[b,e]pyridin]-8′-yl)carbamoyl)-1H-pyrazole-3-sulfonimidamide]
NS(=O)(=NC(=O)Nc1c2c(nc3c1CCC31CC1)CCC2)c1nn(C(F)F)cc1F (single isomer, unassigned) [Example 682, (S) or (R)-1-(difluoromethyl)-4-fluoro-N′-((1′,5′,6′,7′-tetrahydro-2′H-spiro[cyclopropane-1,3′-dicyclopenta[b,e]pyridin]-8′-yl)carbamoyl)-1H-pyrazole-3-sulfonimidamide]
NS(=O)(=NC(=O)Nc1c2c(nc(C3CC3)c1C1CC1)CCC2)c1ccn(C(F)F)n1 (single isomer, unassigned) [Example 695, (R) or (S)-N′-((2,3-dicyclopropyl-6,7-dihydro-5H-cyclopenta [b]pyridin-4-yl)carbamoyl)-1-(difluoromethyl)-1H-pyrazole-3-sulfonimidamide]
CC(C)(O)c1cc(F)c(S(N)(=O)=NC(=O)Nc2c3c(nc(C4CC4)c2C2CC2)CCC3)s1 (single isomer, unassigned) [Example 698, (S) or (R)-N′-((2,3-dicyclopropyl-6,7-dihydro-5H-cyclopenta[b]pyridin-4-yl)carbamoyl)-3-fluoro-5-(2-hydroxypropan-2-yl) thiophene-2-sulfonimidamide]

IC50, 40 to 200 nM:
C[C@@H]1CCc2c1nc1c(c2NC(=O)N=S(N)(=O)c2nn(C(F)F)cc2F)CCC1 (single isomer, unassigned) [Example 679, (R) or (S)-1-(difluoromethyl)-4-fluoro-N′-(((R)-3-methyl-1,2,3,5,6,7-hexahydrodicyclopenta[b,e]pyridin-8-yl)carbamoyl)-1H-pyrazole-3-sulfonimidamide]
NS(=O)(=NC(=O)Nc1c2c(nc3c1CCC31CC1)CCC2)c1nn(C(F)F)cc1F (single isomer, unassigned) [Example 681, (R) or (S)-1-(difluoromethyl)-4-fluoro-N′-((1′,5′,6′,7′-tetrahydro-2′H-spiro[cyclopropane-1,3′-dicyclopenta[b,e]pyridin]-8′-yl)carbamoyl)-1H-pyrazole-3-sulfonimidamide]
CC(C)(O)c1cc(F)c(S(N)(=O)=NC(=O)Nc2c3c(nc(C4CC4)c2C2CC2)CCC3)s1 (single isomer, unassigned) [Example 697, (R) or (S)-N′-((2,3-dicyclopropyl-6,7-dihydro-5H-cyclopenta[b]pyridin-4-yl)carbamoyl)-3-fluoro-5-(2-hydroxypropan-2-yl) thiophene-2-sulfonimidamide]

IC50, 5000 to 30000 nM:
CCc1ncc(S(N)(=O)=NC(=O)Nc2c3c(nc4c2CC[C@H]4C)CCC3)s1 (single isomer, unassigned) [Example 673, (S) or (R)-2-ethyl-N′-(((R)-3-methyl-1,2,3,5,6,7-hexahydrodicyclopenta[b,e]pyridin-8-yl)carbamoyl) thiazole-5-sulfonimidamide]
C[C@@H]1CCc2c1nc1c(c2NC(=O)N=S(N)(=O)c2nn(C(F)F)cc2F)CCC1 (single isomer, unassigned) [Example 680, (S) or (R)-1-(difluoromethyl)-4-fluoro-N′-(((R)-3-methyl-1,2,3,5,6,7-hexahydrodicyclopenta[b,e]pyridin-8-yl)carbamoyl)-1H-pyrazole-3-sulfonimidamide]
CCn1ccc(S(N)(=O)=NC(=O)Nc2c3c(nc4c2CCC42CC2)CCC3)n1 (single isomer, unassigned) [Example 688, (S) or (R)-1-Ethyl-N′-((1′,5′,6′,7′-tetrahydro-2′H-spiro[cyclopropane-1,3′-dicyclopenta[b,e]pyridin]-8′-yl)carbamoyl)-1H-pyrazole-3-sulfonimidamide]
CCn1ccc(S(N)(=O)=NC(=O)Nc2c(C)c(C(F)(F)F)nc3c2CCC3)n1 (single isomer, unassigned) [Example 692, (S) or (R)-1-Ethyl-N′-((3-methyl-2-(trifluoromethyl)-6,7-dihydro-5H-cyclopenta[b]pyridin-4-yl)carbamoyl)-1H-pyrazole-3-sulfonimidamide]
NS(=O)(=NC(=O)Nc1c2c(nc(C3CC3)c1C1CC1)CCC2)c1ccn(C(F)F)n1 (single isomer, unassigned) [Example 696, (S) or (R)-N′-((2,3-dicyclopropyl-6,7-dihydro-5H-cyclopenta [b]pyridin-4-yl)carbamoyl)-1-(difluoromethyl)-1H-pyrazole-3-sulfonimidamide]

IC50, 200 to 1000 nM:
CCc1ncc(S(N)(=O)=NC(=O)Nc2c3c(nc4c2CC[C@H]4C)CCC3)s1 (single isomer, unassigned) [Example 674, (R) or (S)-2-ethyl-N′-(((R)-3-methyl-1,2,3,5,6,7-hexahydrodicyclopenta[b,e]pyridin-8-yl)carbamoyl) thiazole-5-sulfonimidamide]
CCn1ccc(S(N)(=O)=NC(=O)Nc2c3c(nc4c2CCC42CC2)CCC3)n1 (single isomer, unassigned) [Example 687, (R) or (S)-1-Ethyl-N′-((1′,5′,6′,7′-tetrahydro-2′H-spiro[cyclopropane-1,3′-dicyclopenta[b,e]pyridin]-8′-yl)carbamoyl)-1H-pyrazole-3-sulfonimidamide]
CCn1ccc(S(N)(=O)=NC(=O)Nc2c(C)c(C(F)(F)F)nc3c2CCC3)n1 (single isomer, unassigned) [Example 691, (R) or (S)-1-Ethyl-N′-((3-methyl-2-(trifluoromethyl)-6,7-dihydro-5H-cyclopenta[b]pyridin-4-yl)carbamoyl)-1H-pyrazole-3-sulfonimidamide]
CCn1ccc(S(N)(=O)=NC(=O)Nc2c3c(nc(C4CC4)c2C2CC2)CCC3)n1 (single isomer, unassigned) [Example 699, (R) or (S)-N′-((2,3-dicyclopropyl-6,7-dihydro-5H-cyclopenta[b]pyridin-4-yl)carbamoyl)-1-ethyl-1H-pyrazole-3-sulfonimidamide]

IC50, 8 to 40 nM:
CCn1cc(F)c(S(N)(=O)=NC(=O)Nc2c3c(nc4c2CCC42CC2)CCC3)n1 (single isomer, unassigned) [Example 671, (R) or (S)-1-ethyl-4-fluoro-N′-((1′,5′,6′,7′-tetrahydro-2′H-spiro[cyclopropane-1,3′-dicyclopenta[b,e]pyridin]-8′-yl)carbamoyl)-1H-pyrazole-3-sulfonimidamide]
